In US12383556B2, “Methods of treating Sjögren's syndrome using a Bruton's tyrosine kinase inhibitor” (NOVARTIS AG, priority 2019, dated 2025):
Like-named read-outs stand apart in the source and are kept apart here.

Test: First-in-human Part 2 multiple ascending dose q.d. blood and urine PK
Format: in vivo
Details: human, oral; for Cmax: read-out: Cmax; for MRT: read-out: MRT; for Vd/F: read-out: Vss/F; for half-life: read-out: T½ (converted)
Text: First-in-human study in up to approximately 168 healthy volunteers (HVs), of which 64 (in Parts 2 & 4) had asymptomatic atopic diathesis. • Part 1 was a double-blind (subject and investigator blind, sponsor unblinded), placebo-controlled single ascending dose (SAD) escalation study of 10 cohorts (N=80) • Part 2 was a double-blind (subject and investigator blind, sponsor unblinded), placebo-controlled multiple ascending dose (MAD) (13 doses over 12 days) escalation study employing once daily dosing in 6 cohorts in healthy volunteers with asymptomatic atopic diathesis (N=48) • Part 3 was a single dose open-label crossover food effect study in 12 HVs • Part 4 was a double-blind (subject and investigator blind, sponsor unblinded), placebo-controlled multiple dose (25 doses over 12 days) study employing twice daily dosing in 2 cohorts of healthy volunteers with asymptomatic atopic diathesis (N=16)
In Parts 2 and 4, subjects were admitted on Day −2 or −1 for baseline safety assessments and to confirm eligibility. Eligible subjects received the first dose of compound (I) under fasting conditions on Day 1, and continued to take study medication under fasting conditions up to and including Day 12. Subjects were domiciled from Day −2 or −1 until the morning of Day 16, which equals 96 hours after the last dose of compound (I) was received. In Parts 2 and 4, the study medication was given once daily and twice daily respectively (details are found in the schedule of assessments).
Subjects were assigned to one of the following 6 cohorts. In each cohort, 8 subjects were randomized to either compound (I) or matching placebo in a 6:2 ratio. • Cohort 1: multiple oral doses of 10 mg compound (I) or matching placebo • Cohort 2: multiple oral doses of 25 mg compound (I) or matching placebo • Cohort 3: multiple oral doses of 50 mg compound (I) or matching placebo • Cohort 4: multiple oral doses of 100 mg compound (I) or matching placebo • Cohort 5: multiple oral doses of 400 mg compound (I) or matching placebo • Cohort 6: multiple oral doses of up to 600 mg compound (I) or matching placebo
Pharmacokinetic samples were obtained in blood and evaluated in all subjects at all dose levels. The samples from placebo subjects were not analyzed. The samples for PK assessments from subjects were collected at time points defined in the study. Compound (I) concentrations were determined in blood by a validated LC-MS/MS method.

[1] = blood, 10 mg, 10 mg qd, Day 1, blood, Median (Min-Max)
[2] = blood, 10 mg, 10 mg qd, Day 12, blood, Median (Min-Max)
[3] = blood, 25 mg, 25 mg qd, Day 1, blood, Median (Min-Max)
[4] = blood, 25 mg, 25 mg qd, Day 12, blood, Median (Min-Max)
[5] = blood, 50 mg, 50 mg qd, Day 1, blood, Median (Min-Max)
[6] = blood, 50 mg, 50 mg qd, Day 12, blood, Median (Min-Max)
[7] = blood, 100 mg, 100 mg qd, Day 12, blood, Median (Min-Max)
[8] = blood, 400 mg, 400 mg qd, Day 12, blood, Median (Min-Max)
[9] = blood, 600 mg, 600 mg qd, Day 12, blood, Median (Min-Max)

C=CC(=O)N(C)CCOc1c(N)ncnc1-c1cc(F)cc(NC(=O)c2ccc(C3CC3)cc2F)c1C [Compound of Formula (I), N-(3-(6-Amino-5-(2-(N-methylacrylamido)ethoxy)pyrimidin-4-yl)-5-fluoro-2-methylphenyl)-4-cyclopropyl-2-fluorobenzamide]
AUC(0-t) (blood, 10 mg, 10 mg qd, Day 1, blood, Median (Min-Max), read-out: AUClast): 4.4 ng·h/mL | Cmax [1]: 8.03 ng/mL | MRT [1]: 0.766 h | Vd/F (blood, 10 mg, 10 mg qd, Day 12, blood, Mean ± SD): 554 ± 90.4 L | Tmax [2]: 0.625 h | Cmax [2]: 17.2 ng/mL | Vd/F [2]: 562 L | AUC(0-t) (blood, 25 mg, 25 mg qd, Day 1, blood, Mean ± SD, read-out: AUC0-24): 44.9 ± 25.2 ng·h/mL | AUC(0-t) (blood, 25 mg, 25 mg qd, Day 1, blood, Mean ± SD, read-out: AUClast): 43.9 ± 24.6 ng·h/mL | MRT (blood, 25 mg, 25 mg qd, Day 1, blood, Mean ± SD): 1.18 ± 0.49 h | AUC(0-t) (blood, 25 mg, 25 mg qd, Day 1, blood, Median (Min-Max), read-out: AUC0-24): 46.6 ng·h/mL | AUC(0-t) (blood, 25 mg, 25 mg qd, Day 1, blood, Median (Min-Max), read-out: AUClast): 45.5 ng·h/mL | Cmax [3]: 37.3 ng/mL | MRT [3]: 1.17 h | Vd/F (blood, 25 mg, 25 mg qd, Day 12, blood, Mean ± SD): 407 ± 208 L | Cmax [4]: 78.4 ng/mL | Vd/F [4]: 334 L | AUC(0-t) (blood, 50 mg, 50 mg qd, Day 1, blood, Mean ± SD, read-out: AUC0-24): 116 ± 32.9 ng·h/mL | AUC(0-t) (blood, 50 mg, 50 mg qd, Day 1, blood, Mean ± SD, read-out: AUClast): 113 ± 34.2 ng·h/mL | MRT (blood, 50 mg, 50 mg qd, Day 1, blood, Mean ± SD): 2.53 ± 1.17 h | Tmax [5]: 0.5 h | AUC(0-t) (blood, 50 mg, 50 mg qd, Day 1, blood, Median (Min-Max), read-out: AUC0-24): 107 ng·h/mL | AUC(0-t) (blood, 50 mg, 50 mg qd, Day 1, blood, Median (Min-Max), read-out: AUClast): 103 ng·h/mL | Cmax [5]: 70.1 ng/mL | MRT [5]: 2.44 h | Vd/F (blood, 50 mg, 50 mg qd, Day 12, blood, Mean ± SD): 431 ± 172 L | Tmax [6]: 1 h | Vd/F [6]: 346 L | MRT (blood, 100 mg, 100 mg qd, Day 1, blood, Median (Min-Max)): 2.16 h | Vd/F (blood, 100 mg, 100 mg qd, Day 12, blood, Mean ± SD): 1910 ± 2780 L | Cmax [7]: 205 ng/mL | Vd/F [7]: 338 L | AUC(0-t) (blood, 400 mg, 400 mg qd, Day 1, blood, Median (Min-Max), read-out: AUC0-24): 826 ng·h/mL | AUC(0-t) (blood, 400 mg, 400 mg qd, Day 1, blood, Median (Min-Max), read-out: AUClast): 826 ng·h/mL | MRT (blood, 400 mg, 400 mg qd, Day 1, blood, Median (Min-Max)): 2.94 h | Vd/F (blood, 400 mg, 400 mg qd, Day 12, blood, Mean ± SD): 4400 ± 3340 L | Cmax [8]: 476 ng/mL | Vd/F [8]: 3440 L | AUC(0-t) (blood, 600 mg, 600 mg qd, Day 1, blood, Median (Min-Max), read-out: AUC0-24): 932 ng·h/mL | AUC(0-t) (blood, 600 mg, 600 mg qd, Day 1, blood, Median (Min-Max), read-out: AUClast): 931 ng·h/mL | MRT (blood, 600 mg, 600 mg qd, Day 1, blood, Median (Min-Max)): 3.22 h | Vd/F (blood, 600 mg, 600 mg qd, Day 12, blood, Mean ± SD): 7130 ± 5120 L | Cmax [9]: 475 ng/mL | Vd/F [9]: 7070 L | concentration at 24 h (blood, multiple doses, typical, read-out: blood concentration at 24 hours post last dose): < 1 ng/mL | AUC(0-inf) (whole blood, 10 mg, 10 mg qd, Day 12, blood, Mean ± SD): 24.7 ± 3.65 ng·h/mL | AUC(0-t) (whole blood, 10 mg, 10 mg qd, Day 12, blood, Mean ± SD, read-out: AUC0-24): 24 ± 3.6 ng·h/mL | AUC(0-t) (whole blood, 10 mg, 10 mg qd, Day 12, blood, Mean ± SD, read-out: AUClast): 22.9 ± 3.5 ng·h/mL | AUC(0-inf) (whole blood, 10 mg, 10 mg qd, Day 12, blood, Median (Min-Max)): 24.3 ng·h/mL | AUC(0-t) (whole blood, 10 mg, 10 mg qd, Day 12, blood, Median (Min-Max), read-out: AUC0-24): 23.6 ng·h/mL | AUC(0-t) (whole blood, 10 mg, 10 mg qd, Day 12, blood, Median (Min-Max), read-out: AUClast): 22.4 ng·h/mL | AUC(0-inf) (whole blood, 25 mg, 25 mg qd, Day 12, blood, Mean ± SD): 117 ± 60.4 ng·h/mL | AUC(0-t) (whole blood, 25 mg, 25 mg qd, Day 12, blood, Mean ± SD, read-out: AUC0-24): 117 ± 60.9 ng·h/mL | AUC(0-t) (whole blood, 25 mg, 25 mg qd, Day 12, blood, Mean ± SD, read-out: AUClast): 114 ± 59.7 ng·h/mL | AUC(0-inf) (whole blood, 25 mg, 25 mg qd, Day 12, blood, Median (Min-Max)): 102 ng·h/mL | AUC(0-t) (whole blood, 25 mg, 25 mg qd, Day 12, blood, Median (Min-Max), read-out: AUC0-24): 101 ng·h/mL | AUC(0-t) (whole blood, 25 mg, 25 mg qd, Day 12, blood, Median (Min-Max), read-out: AUClast): 98.2 ng·h/mL | AUC(0-inf) (whole blood, 50 mg, 50 mg qd, Day 12, blood, Mean ± SD): 209 ± 80 ng·h/mL | AUC(0-t) (whole blood, 50 mg, 50 mg qd, Day 12, blood, Mean ± SD, read-out: AUC0-24): 209 ± 80.2 ng·h/mL | AUC(0-t) (whole blood, 50 mg, 50 mg qd, Day 12, blood, Mean ± SD, read-out: AUClast): 207 ± 80.4 ng·h/mL | AUC(0-inf) (whole blood, 50 mg, 50 mg qd, Day 12, blood, Median (Min-Max)): 181 ng·h/mL | AUC(0-t) (whole blood, 50 mg, 50 mg qd, Day 12, blood, Median (Min-Max), read-out: AUC0-24): 181 ng·h/mL | AUC(0-t) (whole blood, 50 mg, 50 mg qd, Day 12, blood, Median (Min-Max), read-out: AUClast): 179 ng·h/mL | AUC(0-inf) (whole blood, 100 mg, 100 mg qd, Day 12, blood, Mean ± SD): 577 ± 207 ng·h/mL | AUC(0-inf) (whole blood, 100 mg, 100 mg qd, Day 12, blood, Median (Min-Max)): 595 ng·h/mL | AUC(0-t) (whole blood, 100 mg, 100 mg qd, Day 12, blood, Median (Min-Max), read-out: AUC0-24): 429 ng·h/mL | AUC(0-t) (whole blood, 100 mg, 100 mg qd, Day 12, blood, Median (Min-Max), read-out: AUClast): 444 ng·h/mL | AUC(0-inf) (whole blood, 400 mg, 400 mg qd, Day 12, blood, Mean ± SD): 1330 ± 608 ng·h/mL | AUC(0-inf) (whole blood, 400 mg, 400 mg qd, Day 12, blood, Median (Min-Max)): 1210 ng·h/mL | AUC(0-t) (whole blood, 400 mg, 400 mg qd, Day 12, blood, Median (Min-Max), read-out: AUC0-24): 1140 ng·h/mL | AUC(0-t) (whole blood, 400 mg, 400 mg qd, Day 12, blood, Median (Min-Max), read-out: AUClast): 1180 ng·h/mL | AUC(0-inf) (whole blood, 600 mg, 600 mg qd, Day 12, blood, Mean ± SD): 1260 ± 338 ng·h/mL | AUC(0-inf) (whole blood, 600 mg, 600 mg qd, Day 12, blood, Median (Min-Max)): 1090 ng·h/mL | AUC(0-t) (whole blood, 600 mg, 600 mg qd, Day 12, blood, Median (Min-Max), read-out: AUC0-24): 1060 ng·h/mL | half-life (whole blood, 10 mg qd, Day 12, blood, Median (Min-Max)): 0.961 h | half-life (whole blood, 25 mg qd, Day 12, blood, Median (Min-Max)): 1.15 h | half-life (whole blood, 50 mg qd, Day 12, blood, Median (Min-Max)): 1.15 h
